# Measurements: paper PMC6694155, “PTPσ inhibitors promote hematopoietic stem cell regeneration” (Nature Communications, 2019)
# Values joined by “and” are separate entries in the source; they are usually repeats but may differ in a detail not shown here. Equal entries are not always repeated.
# Tests used:
# PTPσ = target: T1, PTPσ (Mus musculus, UniProt B0V2N1); test: Substrate titration of PTPσ (Km, Vmax, mechanism of inhibition); format: biochemical
# T1 sequence (B0V2N1 1326-1907): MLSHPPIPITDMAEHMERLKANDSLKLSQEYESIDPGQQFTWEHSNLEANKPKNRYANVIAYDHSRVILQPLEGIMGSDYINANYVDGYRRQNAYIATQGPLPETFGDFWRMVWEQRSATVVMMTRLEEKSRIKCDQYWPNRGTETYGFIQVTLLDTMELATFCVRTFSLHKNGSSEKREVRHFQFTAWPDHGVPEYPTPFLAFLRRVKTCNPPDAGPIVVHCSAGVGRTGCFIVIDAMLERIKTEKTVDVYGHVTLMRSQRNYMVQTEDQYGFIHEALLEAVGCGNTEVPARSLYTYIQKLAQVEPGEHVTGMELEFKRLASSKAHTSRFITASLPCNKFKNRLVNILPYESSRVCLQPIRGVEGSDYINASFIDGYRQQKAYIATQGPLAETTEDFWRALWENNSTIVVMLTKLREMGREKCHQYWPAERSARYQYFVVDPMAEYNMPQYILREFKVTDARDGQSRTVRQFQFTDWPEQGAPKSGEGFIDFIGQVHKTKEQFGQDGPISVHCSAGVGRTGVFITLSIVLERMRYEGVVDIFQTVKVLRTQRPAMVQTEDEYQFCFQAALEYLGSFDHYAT
# Experimental: The two intracellular catalytic domains (D1 and D2) of Ptprs were cloned into a pET28a vector, overexpressed in Escherichia coli BL21 and purified. Enzymatic activity of PTPσ was assayed using a modified version of the Malachite Green Assay[66] and the Tyrosine Phosphatase Assay Kit (Promega Corporation). Unless stated otherwise, standard assays were carried out using 50 nM PTPσ protein in 1× Buffer (10 mM Tris, 5 mM MgCl2, 10 mM NaCl, 0.02% Tween) and Tyr Phosphopeptide as substrate (200 μM for Fig. 1b, c, 50–1200 μM in Fig. 1c). Purified catalytic domain 1 and domain 2 of PTPσ were pre-incubated with test compounds 3071, 5205, 5075, or control for 15 min in a 96-well plate before the addition of Tyr Phosphopeptide (DADE(pY)LIPQQG). For IC50 determination, rates normalized relative to uninhibited controls (dimethyl sulfoxide (DMSO)) were plotted against compound concentration and fitted using a four-parameter nonlinear regression curve fit ((y = [(A − D) (1 + {xC − 1}B) − 1] + D) (Prism 6.0, Graphpad Software). For mechanism studies and determination of the enyzme’s Km and Vmax, data were analyzed using a nonlinear regression fit according to the classical Michaelis–Menten kinetics model, Y = Vmax*X/(Km + X) (Prism 6.0, Graphpad Software).
# [1] = target: T2, LMPTP-A (Low Molecular Weight Protein Tyrosine Phosphatase A) (Homo sapiens, UniProt P24666); test: PhosphataseProfiler screen: LMPTP-A; format: biochemical; settings: replicates
# T2 construct: purchased Eurofins Pharma Discovery Services UK
# T2 sequence (P24666 whole entry, species assumed): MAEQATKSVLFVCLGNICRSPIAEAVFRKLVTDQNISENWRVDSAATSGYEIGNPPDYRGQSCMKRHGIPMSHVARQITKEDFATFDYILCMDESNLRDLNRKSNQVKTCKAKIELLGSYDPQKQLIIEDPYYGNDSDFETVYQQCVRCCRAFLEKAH
# Experimental: Compound DJ001 was evaluated in a PhosphataseProfiler™ screen at 10 μM and 1 μM (2.7 μg/mL and 0.27 μg/mL) concentrations at Eurofins Pharma Discovery Services UK (Study number UK022-0004033) against a panel of 21 Phosphatases. In each experiment, the respective reference antagonist/agonist was tested directly with DJ001 and the data were compared with historical values determined at Eurofins. DJ001 compound inhibition was calculated as percentage inhibition of the enzymatic activity compared with control.
# BM KSL cells = test: Annexin V/7AAD apoptosis assay of BM KSL cells from mice 24 h post 500 cGy TBI; format: in vivo, mouse
# Experimental: (§1) Eight- to ten-week-old female C57BL/6 mice were irradiated with 500 cGy TBI followed by subcutaneous injections of 5 mg/kg DJ001 or vehicle, or 5 mg/kg DJ001 plus 40 mg/kg EHT1864. Twenty four hours after irradiation, mice were killed to collect BM cells for Annexin V apoptosis analysis. BM cells were stained with APC-Cy7-conjugated anti-mouse Sca1 (BD Biosciences, #560654, 1:100), PE-conjugated anti-ckit (BD Biosciences, #553355, 1:100), and V450 lineage cocktail (BD Biosciences, #561301, 1:10) antibodies for 30 min at 4 °C. Cells were then resuspended in 1× Annexin V binding buffer and then stained with FITC-conjugated anti-Annexin V antibody (BD Biosciences, #556547,1:50) and 7AAD antibody (BD Biosciences, #559925, 1:40)[68]. For in vitro human BM cell apoptosis assays, isolated human BM CD34^+ cells were plated into 96-well plates and then irradiated with 300 cGy. Immediately after irradiation, cells were treated with 5 μg/mL DJ001 or vehicle for 24 h and then collected for Annexin V cell apoptosis analysis. For cell cycle analysis, BM KSL cells were irradiated at 300 cGy and then treated with 1 μg/mL DJ001 or vehicle for 36 h. Subsequently, cells were resuspended in 200 μL of PBS, fixed with 1 mL of ice-cold fixation solution (0.25% Saponin, 2.5% PFA, 2% fetal calf serum (FCS) in PBS), and incubated for 30 min on ice. Cells were washed in Saponin buffer (0.25% Saponin, 2% FCS in PBS) and resuspended in 200 μL of Saponin buffer containing 20 μL of FITC-conjugated anti-Ki67 antibody (BD Biosciences, #556026, 1:10) and 1 μL of RNase (Qiagen, #19101, 100 mg/mL). After 30 min of incubation, cells were washed in Saponin buffer and resuspended for flow analysis in 200 μL of Saponin buffer containing 5 μL 7AAD (BD Biosciences, #559925, 1:40).
# human CD34+CD38− cells = test: Annexin V/7AAD apoptosis assay of irradiated human BM CD34+ cells; format: cell-based
# Experimental: as §1
# [2] = irradiated human BM CD34+ cells, replicates
compound,measurement,setting,value
"O=C(/C=C\Nc1cccc([N+](=O)[O-])c1)c1ccccc1 [DJ001, (Z)-3-((3-nitrophenyl)amino)-1-phenylprop-2-en-1-one]","substrate titration source data, rate per replicate","PTPσ; 25M DJ001, Substrate 50 uM",9
same,"substrate titration source data, rate per replicate","PTPσ; 25M DJ001, Substrate 50 uM, 25 µM DJ001",12.3
same,"substrate titration source data, rate per replicate","PTPσ; 25M DJ001, Substrate 100 uM",13.4
same,"substrate titration source data, rate per replicate","PTPσ; 25M DJ001, Substrate 100 uM, 25 µM DJ001",16.2
same,"substrate titration source data, rate per replicate","PTPσ; 25M DJ001, Substrate 200 uM",26.7
same,"substrate titration source data, rate per replicate","PTPσ; 25M DJ001, Substrate 200 uM, 25 µM DJ001",26
same,"substrate titration source data, rate per replicate","PTPσ; 25M DJ001, Substrate 400 uM",42.9
same,"substrate titration source data, rate per replicate","PTPσ; 25M DJ001, Substrate 400 uM, 25 µM DJ001",40.9
same,"substrate titration source data, rate per replicate","PTPσ; 25M DJ001, Substrate 800 uM",54.8
same,"substrate titration source data, rate per replicate","PTPσ; 25M DJ001, Substrate 800 uM, 25 µM DJ001",50.4
same,"substrate titration source data, rate per replicate","PTPσ; 25M DJ001, Substrate 1200 uM",57.8
same,"substrate titration source data, rate per replicate","PTPσ; 25M DJ001, Substrate 1200 uM, 25 µM DJ001",55.4
same,"substrate titration source data, rate per replicate","PTPσ; 50M DJ001, Substrate 50 uM, 50 µM DJ001",7.7 and 8
same,"substrate titration source data, rate per replicate","PTPσ; 50M DJ001, Substrate 100 uM, 50 µM DJ001",9.1 and 9.9
same,"substrate titration source data, rate per replicate","PTPσ; 50M DJ001, Substrate 200 uM, 50 µM DJ001",14.1 and 15.3
same,"substrate titration source data, rate per replicate","PTPσ; 50M DJ001, Substrate 400 uM, 50 µM DJ001",23.2 and 23.4
same,"substrate titration source data, rate per replicate","PTPσ; 50M DJ001, Substrate 800 uM, 50 µM DJ001",28.7 and 27
same,"substrate titration source data, rate per replicate","PTPσ; 50M DJ001, Substrate 1200 uM, 50 µM DJ001",34.7 and 35
same,"substrate titration source data, rate per replicate","PTPσ; 100M DJ001, Substrate 50 uM",7.7 and 7.4
same,"substrate titration source data, rate per replicate","PTPσ; 100M DJ001, Substrate 100 uM",7.7
same,"substrate titration source data, rate per replicate","PTPσ; 100M DJ001, Substrate 200 uM",8.9
same,"substrate titration source data, rate per replicate","PTPσ; 100M DJ001, Substrate 400 uM",13.4 and 13.9
same,"substrate titration source data, rate per replicate","PTPσ; 100M DJ001, Substrate 800 uM",17.3 and 16.7
same,"substrate titration source data, rate per replicate","PTPσ; 100M DJ001, Substrate 1200 uM",25.5 and 23.8
same,mechanism of PTPσ inhibition,"PTPσ; substrate titration, inhibits Vmax, constant Km",non-competitive inhibitor
same,Supplementary Figure 1: LMPTP-A activity,[1]; 0.27 g/mL DJ001,100 and 90 and 93
same,Supplementary Figure 1: LMPTP-A activity,[1]; 2.7 g/mL DJ001,78 and 84 and 89
same,percentage of apoptotic BM KSL cells vs vehicle,BM KSL cells; 24 h following 500 cGy TBI,significantly decreased the percentage of apoptotic BM KSL cells
same,Figure 3e: Annexin V/7AAD apoptosis of BM KSL cells,"BM KSL cells; 24 h post 500 cGy TBI, individual mice",14.6 and 11.3 and 12.5 and 12.9 and 14.7 and 10.4 and 14.5 and 15.5 and 16.7
same,radiation-induced apoptosis of human CD34+CD38− cells,human CD34+CD38− cells; 24 h after 300 cGy,decreased radiation-induced apoptosis
same,Figure 5c (left panel): Annexin V/7AAD assay,human CD34+CD38− cells; [2],85.79 and 85.23 and 84.4 and 88.36 and 87.91 and 86.9 and 86.4 and 88.8 and 87.8 and 88
same,Figure 5c (right panel): Annexin V/7AAD assay,human CD34+CD38− cells; [2],10.98 and 10.1 and 10.94 and 7.63 and 8.04 and 12.5 and 13.3 and 11 and 12.1 and 11.7
